Measurements as given in patent US20240336638A1, “IMIDAZOLE COMPOUND, AND INTERMEDIATE AND APPLICATION THEREOF” (priority 2021, published 2024).

Experiments:
[1] = test system: AA-induced platelet aggregation; experiment: Inhibitory effect on AA-induced platelet aggregation in rats in vitro (washed platelets); format: cell-based, rat; conditions: 1*10^−4 M
Procedure: Several experimental groups were established, including a blank control group, an AA (arachidonic acid) model control group, and various test compounds. Each test compound had three concentration groups: 10^−3 M, 10^−4 M, and 10^−5 M. The data from the blank and model control group were shared among the different drug concentration groups as a control.
(§1) Male SD rats were anesthetized with 3% chloral hydrate (300 mg/kg) through intraperitoneal injection. After being fixed in a supine position, the skin of the neck was cut about 3 cm, bluntly separated with a hemostat, and the trachea was exposed after the common carotid artery was separated. The distal end of the common carotid artery was ligated with a fine thread, and the proximal end was clamped with an arterial clamp for vascular intubation. After the intubation was fixed, the artery clamp was opened, and the blood was placed into a blood collection tube containing 3.8% trisodium citrate so that the blood was mixed well with the 3.8% trisodium citrate in a volume ratio of 9:1.
The prepared anticoagulant blood was mixed well and centrifuged for 10 minutes at 500 rpm, then the upper layer of plasma was aspirated to obtain platelet-rich plasma (PRP), and the PRP was centrifuged again for 5 minutes at 3,000 rpm. The supernatant was discarded, and the platelet precipitate was obtained, which was washed once with Ca^2+-free HEPES-Tyrode's buffer, then centrifuged at 3,000 rpm for 5 minutes. The supernatant was discarded, and the platelets were resuspended with Ca^2+-free HEPES-Tyrode's buffer to obtain the washed platelets.
First, 300 μL of Ca^2+-containing HEPES-Tyrode's solution was taken into the test cup, put into the test wells, and calibrated by pressing the “PPP” key. Subsequently, 240 μL of the washed platelets were added to the test cup, then added with 30 μL of different concentrations of drug solution, incubated for 10 minutes at 37° C. in a preheated bath, and then put into the test wells. 3 μL of 100× CaCl2 solution (final concentration of 0.2 g/L) and 30 μL of inducer (final concentration of AA of 800 μM) were added to the test wells, and then the “Start” key was pressed immediately. The maximum aggregation rate was recorded every 60 s. The measurement was repeated three times for each concentration for 10 minutes, and the aggregation curve was plotted.
The platelet aggregation inhibition rate was calculated with the following formula:
Inhibition rate (%)=(maximum aggregation rate in the model control group−maximum aggregation rate in the administration group)/maximum aggregation rate in the model control group×100%
All data were expressed as mean±standard deviation (mean±SD). SPSS 22.0 software was used for statistical analysis of the data. Intergroup data were analyzed using one-way ANOVA, with P<0.05 considered as statistically significant and P<0.01 considered as highly significant.

MCAO/R rats = experiment: Therapeutic administration (i.v.) in middle cerebral artery occlusion/reperfusion (MCAO/R) rats; format: in vivo, rat; conditions: for Bleeding time / Brain water content (%) / Cerebral infarction rate (%) / Clotting time / Neurological function score: once a day for 3 days, mean ± SD, n = 8; for Neurological function score: modified Bederson score
Procedure: Male SD rats weighing 250 to 300 g were taken, and the rats in each group fasted for 12 hours before modeling, while water was not restricted. According to the method of Longa et al.^[1], a rat model of MCAO/R was established by occluding the blood flow of internal carotid artery using the thread embolization method. The rats were anesthetized with 3% chloral hydrate (300 mg/kg, 1 mL/100 g body weight) through intraperitoneal injection and fixed in the supine position on the operating table. A midline incision was made in the neck, and the right common carotid artery was isolated using forceps and threaded for later use. The external and internal carotid arteries were isolated from the bifurcation of the common carotid artery. A single thread was threaded through the internal carotid artery, and two threads were threaded through the external carotid artery. Both distal and proximal ends were ligated, and the middle part of the ligation site was cut using ophthalmic scissors. The proximal main trunk of the external carotid artery was isolated and reserved for later use. The prepared cotton thread was used to half-ligate the common carotid artery (tying a slipknot), and the thread prepared for the internal carotid artery was tightened with hemostatic forceps, temporarily occluding the blood flow of the internal carotid artery. A small incision at the proximal main trunk of the external carotid artery was made using ophthalmic scissors, and then, the fishing line was held with straight forceps, inserted from this incision, and slowly advanced through the isolated proximal main trunk of the external carotid artery towards the intracranial direction of the internal carotid artery. The advancement was stopped at a predetermined position, and then the thread of the internal carotid artery that was tightened with the hemostatic forceps was loosened. […] Another thread was threaded and tightened around the proximal main trunk of the external carotid artery and the fishing line that had already been inserted into the predetermined position. The half-ligated thread on the common carotid artery was then loosened, and the skin was subsequently sutured. After 2 hours of ischemia, a small section of the fishing line was pulled out. […] After rats in the blank control group were anesthetized, only the bifurcation of the internal and external carotid arteries was exposed without the occlusion of the MCA.
Successfully modeled rats (neurological function score of 3 after reperfusion) were taken and divided into 20 groups (8 rats for each) according to the random number table method. The groups were divided into a model control group, three dose groups (high, 12 mg/kg, 2.4 mg/mL; medium, 6 mg/kg, 1.2 mg/mL; low, 3 mg/kg, 0.6 mg/mL) for each of the six test compounds, and a positive drug Ozagrel group (6 mg/kg, 1.2 mg/mL), respectively. Both blank and model control groups were administered equal volumes of mixed solvents, and the rats in each group were administered by tail vein injection (i.v.) 2 hours after reperfusion, once a day for 3 consecutive days, with a volume of 0.5 mL/100 g body weight.
Ten minutes after the last administration, the neurological function of the animals was graded according to the modified Bederson scoring method. The standard is as follows[2]: • 0 point: no neurological symptoms; • 1 point: when the rat is suspended by lifting its tail, the forelimb on the surgical side of the rat was flexed and pressed against the chest wall; • 2 points: on a smooth plane, when the rat is pushed from the surgical side to the opposite side, the resistance is less than when it is moved to the same side; • 3 points: the animal moves around or in circles when moving freely; • 4 points: flaccid paralysis, no spontaneous movement of limbs.
After Bederson scoring, the rats were executed by cervical dislocation, and the whole brain was removed and weighed. After weighing, the whole brain was placed in a −20° C. refrigerator for 20 minutes. […]

[2] = test system: AA-induced platelet aggregation; experiment: Inhibitory effect on AA-induced platelet aggregation in rabbits in vitro; format: cell-based, rabbit; conditions: 1*10^−4 M; text conclusion (2)
Procedure: Several experimental groups were established, including a blank control group, an AA model control group, and various test compounds. Each test compound had three concentration groups: 10^−3 M, 10^−4 M, and 10^−5 M.
as §1, with “Rabbits were” for “Male SD rats were”, “with a 20% urethane solution (5 mL/kg body weight)” for “with 3% chloral hydrate (300 mg/kg)”, “about 6” for “about 3”, “9:1. […]” for “9:1.”
First, 300 μL of PPP was added to the test cup and put into the test wells, and calibrated by pressing the “PPP” key. […] The maximum aggregation rate within 4 minutes was measured. […]
The platelet aggregation inhibition rate was calculated with the following formula: […]
All data were expressed as mean standard deviation (mean b SD). […] Intergroup data were analyzed using one-way ANOVA, with P<0.05 considered as statistically significant and P<0.01 considered as highly significant.

[3] = medium dose 6 mg/kg i.v. (Ozagrel group 6 mg/kg)

## O=C(O)[C@@H]1C[C@H]1c1ccc(Cn2cnc(Cl)c2)cc1F [Compound 13, (1R,2R)-2-(4-((4-Chloro-1H-imidazol-1-yl)methyl)-2-fluorophenyl)cyclopropane-1-carboxylic acid]
[1]
  significant inhibition of AA-induced platelet aggregation: can significantly inhibit
MCAO/R rats; high dose 12 mg/kg i.v.
  Bleeding time: 301.25 ± 46.40 s
  Brain water content (%): 80.73 ± 1.10%
  Cerebral infarction rate (%): 14.30%
  Clotting time: 163.63 s
  Neurological function score: 1.50 ± 0.53
MCAO/R rats; low dose
  infarct size: can also significantly reduce
MCAO/R rats; low dose 3 mg/kg i.v.
  Bleeding time: 303.00 ± 39.59 s
  Brain water content (%): 80.87 ± 2.84%
  Cerebral infarction rate (%): 23.02%
  Clotting time: 146.94 ± 24.73 s
  Neurological function score: 2.00 ± 0.53
MCAO/R rats; medium and high doses
  coagulation time of rats: can significantly prolong
MCAO/R rats; [3]
  Bleeding time: 314.50 ± 41.83 s
  Brain water content (%): 80.58 ± 1.56%
  Cerebral infarction rate (%): 22.15%
  Clotting time: 164.56 s
  Neurological function score: 1.88 ± 0.64

## O=C(O)C1CN(c2ccc(Cn3ccnc3)nc2)C1 [Compound 56, 1-(6-((1H-Imidazol-1-yl)methyl)pyridin-3-yl)azetidine-3-carboxylic acid]
[2]
  significant inhibition of AA-induced platelet aggregation: can significantly inhibit

## O=C(O)/C=C/c1ccc(Cn2cnc(Cl)c2)cn1 [Compound 59, (E)-3-(5-((4-Chloro-1H-imidazol-1-yl)methyl)pyridin-2-yl)acrylic acid]
[2]
  significant inhibition of AA-induced platelet aggregation: can significantly inhibit

## Cc1cc(Cn2ccnc2)ccc1[C@H]1C[C@@H]1C(=O)O [Compound 27, (1S,2S)-2-(4-((1H-Imidazol-1-yl)methyl)-2-methylphenyl)cyclopropane-1-carboxylic acid]
[1]
  significant inhibition of AA-induced platelet aggregation: can significantly inhibit

## Cc1cc([C@H]2C[C@@H]2C(=O)O)ccc1Cn1cnc(F)c1 [Compound 28, (1S,2S)-2-(4-((4-Fluoro-1H-imidazol-1-yl)methyl)-3-methylphenyl)cyclopropane-1-carboxylic acid]
[1]
  significant inhibition of AA-induced platelet aggregation: can significantly inhibit
